{"source": "patent US7067714B1", "about": "(priority 1999, dated 2006)", "key": {"N-type Ca channel": {"test_system": "N-type Ca channel", "type": "cell-based, mouse"}}}
{"compound": "NC1=N[C@H](O)[C@H]2[C@H]3O[C@]4(O)O[C@@H]([C@@H](O)[C@@]2(N1)[C@@H]4O)[C@]3(O)CO", "note": "[tetrodotoxin]", "values": [{"measurement": "increase in atrial muscle contractile force by nerve stimulus", "setting": "isolated mouse atrium", "value": "completely inhibited"}]}
{"compound": "ω-conotoxin GVIA", "values": [{"measurement": "influx of Ca2+ inhibited by ω-conotoxin GVIA", "setting": "N-type Ca channel", "value": "not observed"}]}
